Test [1] deals with T1, recombinant P. falciparum plasmepsin V (Plasmodium falciparum, UniProt Q8I6Z5).
T1 construct: FLAG tag + SUMO domain + TEV protease cleavage site (secreted via signal peptide) (N, cleaved yes); made in house; host or cells: sf21 insect cells
In words: Fluorogenic PEXEL cleavage assay (KAHRP FRET peptide), inhibition of recombinant P. falciparum plasmepsin V. Format: biochemical. The protocol: (§1) PEXEL cleavage assays (20 μl total volume) consisted of 1 ng/well of P. vivax plasmepsin V or 1.5 ng/well of P. falciparum plasmepsin V in buffer (25 mM Tris.HCl, 25 mM MES, pH 6.4) with 5 μM FRET peptide substrate (DABCYL-[…]-E-EDANS (SEQ ID NO:7) or peptides with the sequence DABCYL-[…]-E-EDANS (SEQ ID NO:8) or DABCYL-[…]-E-EDANS (SEQ ID NO:9)) (Sleebs, B. E. et al. 2014a; see FIG. 9). Samples were incubated at 37° C. for 120 min and measured using an Envision plate (Perkin-Elmer) reader (Ex 340 nm/Em 490 nm).
Reactions comprised of a fluorescent peptide of nine amino acids containing the PEXEL sequence (RTLAQ) from KAHRP. The KAHRP PEXEL peptide substrate DABCYL-[…]-E-EDANS (SEQ ID NO:7) was obtained commercially and used at a final assay concentration of 7.5 μM.
The end-point for all assays was set within the linear range of activity (approximately 1 hr.).
Tween-20 was used at 0.005% final assay concentration. Final assay buffer concentration was as follows: 25 mM Tris HCl, 25 mM MES (pH 6.4). Final assay volume was 20 μL.
An 11-point 1/3 serial dilution of compounds was generated using DMSO as a diluent (final assay concentration of 1%).
Assay reaction was incubated for 60 min at 37° C. and read using a fluorescence plate reader (Ex 340 nm, Em 495 nm). […]

The test system of a further test is P. falciparum parasites. In words: P. falciparum growth assay, parasitaemia at 72 hr by flow cytometry. For orientation: Flow cytometry measures light scatter and fluorescence of single cells or particles in a stream.
In test [2] the target is T2, P. vivax plasmepsin V (Plasmodium vivax, UniProt A5K302).
T2 construct: gp67 signal peptide + FLAG tag + SUMO domain + TEV protease cleavage site (N, cleaved yes); made in house; host or cells: High Five insect cells
T2 sequence (A5K302 33-476, looked up, natural form): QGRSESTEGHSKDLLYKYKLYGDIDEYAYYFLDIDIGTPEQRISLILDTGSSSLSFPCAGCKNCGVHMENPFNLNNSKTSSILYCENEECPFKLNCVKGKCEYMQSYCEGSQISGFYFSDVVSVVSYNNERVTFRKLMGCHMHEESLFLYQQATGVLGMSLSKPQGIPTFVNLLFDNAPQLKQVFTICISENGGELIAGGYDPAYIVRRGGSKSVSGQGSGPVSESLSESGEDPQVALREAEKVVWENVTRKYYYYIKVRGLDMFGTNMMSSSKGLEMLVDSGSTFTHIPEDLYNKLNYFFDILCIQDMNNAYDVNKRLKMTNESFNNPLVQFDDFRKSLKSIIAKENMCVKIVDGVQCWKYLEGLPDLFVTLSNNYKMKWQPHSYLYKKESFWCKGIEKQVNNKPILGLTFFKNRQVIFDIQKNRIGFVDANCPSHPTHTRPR
In words: Surface plasmon resonance (Biacore 4000) direct binding. To be noted: SPR; for Kd: 25° C., 1:1 interaction model, read-out: affinity (KD) for P. vivax plasmepsin V; for kd (off-rate): P. vivax plasmepsin V. The protocol:
Surface plasmon resonance was performed using a Biacore 4000 (GE Healthcare). Plasmepsin V was immobilized on a Series S CM5 sensor chip using amine-coupling chemistry. The surfaces of flow cells were activated for 10 min with a 1:1 mixture of 0.1 M NHS (N-hydroxysuccinimide) and 0.1 M EDC (3-(N,N-dimethylamino)propyl-N-ethylcarbodiimide) at a flow rate of […]. […] Compounds were allowed to associate and dissociate for 250 s and 600 s, respectively. Data were collected at a rate of 10 Hz and fit to a 1:1 interaction model using the Biacore 4000 Evaluation Software Version 1.0.

Test [3] has as its system export of PfEMP3-GFP to P. falciparum-infected erythrocytes. In words: Pulse chase of PfEMP3-GFP processing and export to infected erythrocytes (tetanolysin release). The conditions noted are these: for export of PfEMP3-GFP to parasite-infected erythrocytes: 10 μM pre-treatment 3 hr.
Test [4] deals with plasmepsin V cleavage of the PEXEL in PfEMP3-GFP. In words: PfEMP3-GFP PEXEL processing in P. falciparum trophozoites (immunoblot / 35S radiolabelling and immunoprecipitation). It is filed as cell-based, Plasmodium falciparum. The text has this:
P. falciparum 3D7 expressing the PEXEL protein erythrocyte membrane protein 3 (PfEMP3) fused to green fluorescent protein (GFP) (PfEMP3-GFP) was generated previously (Boddey, J. A. et al, 2010) (see FIG. 2C).
Membranes were probed with mouse a-GFP (Roche; 1:1000), rabbit a-Aldolase (1:1000) or rabbit a-HSP70 (1:4000) antibodies followed by horseradish peroxidase-conjugated secondary antibodies (Silenius; 1:2000) and visualized using enhanced chemiluminescence (Amersham). To radiolabel P. falciparum proteins, magnet-purified trophozoites expressing PfEMP3-GFP were treated with 10 μM inhibitors for 3 hr. […] PfEMP3-GFP protein species were then immunoprecipitated from parasite lysates solubilized in 1% Triton X-100/PBS containing 1× complete protease inhibitors (Roche) using anti-GFP agarose (MBL) for 2 hours at 4° C. and proteins were resolved by SDS-PAGE, visualized by autoradiography and quantified using a GS-800 Calibrated Densitometer (Bio-Rad) (Sleebs, B. E. et al. 2014a).

Test [5] shares this test system. To be noted: PfEMP3-GFP processing; from Sleebs, B. E. et al. 2014; cited from earlier work.
Test [6] deals with T2, P. vivax plasmepsin V. Kind of test: Fluorogenic PEXEL cleavage assay (KAHRP FRET peptide), inhibition of recombinant P. vivax plasmepsin V. Format: biochemical. To be noted: KAHRP fluorogenic substrate 7.5 μM, 60 min, 37° C., pH 6.4.
Test [7] deals with T1, recombinant P. falciparum plasmepsin V. In words: Kinetic characterisation of recombinant plasmepsin V (Michaelis-Menten / Lineweaver-Burk), P. falciparum enzyme. It is filed as biochemical. To be noted: fluorogenic PEXEL substrate from KAHRP. As to the method:
(§2) The in vitro activity of recombinant P. falciparum and P. vivax plasmepsin V was assessed against a fluorogenic peptide of nine amino acids that contained the PEXEL sequence from knob-associated histidine-rich protein (“KAHRP”) (DABCYL-[…]-E-EDANS; SEQ ID NO: 7).
(§3) Values for Km were derived from both the inverse Michaelis-Menten and the Lineweaver-Burk plots. These values were of the same magnitude for each enzyme and are also similar to the Km derived from the activity of another recombinant form of P. falciparum plasmepsin V on a different PEXEL substrate (Xiao, H. et al. 2014).
as §1

The target in test [8] is T2, P. vivax plasmepsin V. Kind of test: Kinetic characterisation of recombinant plasmepsin V (Michaelis-Menten / Lineweaver-Burk), P. vivax enzyme. The conditions noted are these: fluorogenic PEXEL substrate from KAHRP. It is filed as biochemical. As to the method:
as §2, §3, §1

The mark [9] stands for this setting: read-out: EC50, inhibition of growth of P. falciparum (3D7) parasites, 3D7, chloroquine-sensitive strain, 72 hr.

Counter-ions that a name gives are not always drawn. Like-named read-outs stand apart in the source and are kept apart here.

The values that follow come from patent US20190065668A1, “STRUCTURE OF […] IN COMPLEX WITH AN INHIBITOR AND USES THEREOF” (priority 2015, published 2019).

T1 sequence (Q8I6Z5 80-528): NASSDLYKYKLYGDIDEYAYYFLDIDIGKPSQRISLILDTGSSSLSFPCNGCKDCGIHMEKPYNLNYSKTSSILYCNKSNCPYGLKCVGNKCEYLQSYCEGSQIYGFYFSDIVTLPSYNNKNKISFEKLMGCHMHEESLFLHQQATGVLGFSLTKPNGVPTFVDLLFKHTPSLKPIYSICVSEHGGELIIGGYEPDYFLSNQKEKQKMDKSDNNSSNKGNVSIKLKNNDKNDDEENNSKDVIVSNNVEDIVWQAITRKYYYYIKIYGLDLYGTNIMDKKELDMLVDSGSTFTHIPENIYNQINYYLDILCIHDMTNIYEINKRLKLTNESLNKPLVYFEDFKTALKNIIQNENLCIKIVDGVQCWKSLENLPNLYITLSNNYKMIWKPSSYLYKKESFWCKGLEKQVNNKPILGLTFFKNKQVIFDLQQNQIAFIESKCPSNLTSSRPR

Broadly, the EC50 is the concentration needed to bring the measured effect to its halfway point. The term Kd denotes the concentration at which binding is half-saturated. Take `CC(C)C[C@H](NC(=O)[C@@H](NC(=O)[C@H](CCON=C(N)N)NC(=O)OCc1ccccc1)C(C)C)[C@@H](O)CC(=O)NCCc1ccccc1` [WEHI-842, Cbz-Cav(NH2)—Val-Sta-NH(CH2)2Ph.TFA]: the “increased potency against recombinant P. falciparum plasmepsin V compared to WEHI-916” value in [1] (ratio of IC50 values) is given as 15 fold. Also, the EC50 in the test with P. falciparum parasites (setting [9]) came out at 400 nM; with P. falciparum parasites (read-out: EC50, inhibition of growth of P. falciparum CS2, CS2, 72 hr) it was 830 nM; with P. falciparum parasites (read-out: EC50, inhibition of growth of P. falciparum NF54, NF54, 72 hr), 470 nM; in the test on P. falciparum parasites (read-out: EC50, inhibition of growth of P. falciparum W2mef, W2mef (chloroquine-resistant), 72 hr), 640 nM. The Kd at P. vivax plasmepsin V [2] was 13.4 nM. Also, the “kd (off-rate)” value on P. vivax plasmepsin V [2] is given as 1.11 E-03 1/s. In addition, the “reversibility of inhibition of PEXEL cleavage after removal of inhibitor” value in test [3] (10 μM 3 hr, then inhibitor-free medium 30 and 60 min) was “reversible”. Further, the “export of PfEMP3-GFP to parasite-infected erythrocytes” value is on record as “dramatically reduced export” in test [3] (chase 20, 40 and 60 min); “Efficient export of PfEMP3-GFP returned” in test [3] (chase 120 min). The “inhibition of plasmepsin V cleavage of PfEMP3-GFP” value in [4] (10 μM, 3 hours, immunoblot) is given as “potently inhibited plasmepsin V cleavage of PfEMP3-GFP”. Besides, the “time required for optimal inhibition of plasmepsin V in parasites” value in test [4] (PfEMP3-GFP processing) came to 3 h. Also, the “degree of PEXEL processing inhibition compared to WEHI-916” value in test [4] (PfEMP3-GFP, immunoblot) is listed as 10 fold. For the same molecule, the “inhibition of PEXEL cleavage (accumulation of 35 kDa full-length PfEMP3-GFP)” value in test [4] (parasites expressing PfEMP3-GFP, immunoblot) was “efficiently inhibited PEXEL cleavage”.

A word on the IC50: it is the point on the concentration scale where inhibition reaches its midpoint. Regarding `CC(C)C[C@H](NC(=O)[C@@H](NC(=O)[C@H](CCCNC(=N)N)NS(=O)(=O)Cc1ccccc1)C(C)C)[C@@H](O)CC(=O)NCCc1ccccc1` [WEHI-916, reference compound], the IC50 in [1] (KAHRP fluorogenic substrate 7.5 μM, 60 min, 37° C., pH 6.4, read-out: IC50 against recombinant P. falciparum plasmepsin V) is 12.9 nM; at P. vivax plasmepsin V [6], 8.2 nM. In addition, the “time required for optimal inhibition of plasmepsin V in parasites” value in [5] was 5 h. For the same molecule, the EC50 in the test with P. falciparum parasites (read-out: EC50, blocking P. falciparum growth, summary statement, strain not stated) is 5000 nM; in the test on P. falciparum parasites (setting [9]), 5000 nM. In addition, the Kd at P. vivax plasmepsin V [2] is 42 nM. Also, on P. vivax plasmepsin V [2], the “kd (off-rate)” value is 2.47 E-03 1/s.

The Km is the concentration of substrate that gives half-maximal velocity. For the molecule “DABCYL-RNKRTLAQKQ-E-EDANS [fluorogenic PEXEL substrate from KAHRP]”, the Km in test [7] was 20.2 µM; on P. vivax plasmepsin V [8], 6 µM.
